Reference: the NIST ThermoML archive (doi:10.1021/acs.jced.7b01024)
Numbers after ± are expanded uncertainties.

Assay: Boiling temperature at pressure P
Conditions: 101.3 kPa; Liquid; Ebulliometric method (Recirculating still)

SMILES | Boiling temperature at pressure P [°C]
CC(=O)OCC(C)C [2-methylpropyl ethanoate] | 116.60 ± 0.2
C=CCO [2-propenol] | 96.8 ± 0.44
CCCCOC(C)=O [butyl ethanoate] | 126.00 ± 0.2
CCCCOC(=O)CC [butyl propanoate] | 145.10 ± 0.2
